In patent publication US12083082B2, “Methods for treating neurodegenerative disorders” (Alzheon, Inc., priority 2018, dated 2024):
Values joined by “and” are separate entries in the source; they are usually repeats but may differ in a detail not shown here. Equal entries are not always repeated. Where two headings read alike, the source gives them in different places.

What was measured:
[1] = system: CYP; test: Metabolism and CYP interactions of 3-SPA
From the text: ALZ-801 is a valine conjugate of tramiprosate that has been optimized for improved pharmacokinetic properties and gastrointestinal tolerability. Chronic toxicology studies required for the advancement of ALZ-801 to Phase 3 have been completed, including the nonclinical safety characterization of ALZ-801, and the safety bridge to the extensive nonclinical toxicology and safety data for tramiprosate. […] See Hey et al., Clinical Pharmacokinetics and Safety of ALZ-801, a Novel Prodrug of Tramiprosate in Development for the Treatment of Alzheimer's Disease. Clin Pharmacokinetics 2018; 315-333 and Kocis et al., Elucidating the Abeta42 Anti-Aggregation Mechanism of Action of Tramiprosate in Alzheimer's Disease: Integrating Molecular Analytical Methods. Pharmacokinetic and Clinical Data. CNS Drugs 2017; 31:495-509. […] Both ALZ-801 and tramiprosate have consistent elimination half-life in plasma across species following repeated oral doses of ALZ-801, indicating no potential for accumulation after chronic dosing. Following conversion of ALZ-801 to tramiprosate, tramiprosate is consistently metabolized in vivo into a single major metabolite, 3-sulfopropanoic acid (3-SPA), in humans, mice, rats, dogs and minipigs.

[2] = Brain penetration of oral 3-SPA in male SD rats (brain, CSF, plasma); assay type: in vivo, Sprague-Dawley rats; details: oral 30 mg/kg
Description: (§1) A separate group of animals was dosed orally at 30 mg/kg and terminal brain, CSF and plasma samples were collected at 1, 2, 6, and 24 hr (3 animals for each time point) for bioanalyses of 3-SPA in brain and CSF, and to estimate brain penetration relative to plasma concentrations. The in-life study was performed at Agilux Laboratories (Worcester, MA) following quality standards in line with Good Laboratory Practice. Bioanalyses of rat plasma, CSF and brain was preformed using LC-MS/MS at Nextcea. Prior to processing rat brains for bioanalysis, the brains were perfused to remove pooled blood. Pharmacokinetic data analyses were conducted using Winnonlin Professional v5.0.1 (Pharsight, Mountain View, CA).
(§2) The plasma concentration of a single dose of 3-SPA, dissolved in saline as a clear solution, administered orally and intravenously to rats at a dose level of 30 mg/kg and 10 mg/kg, respectively, are shown in FIG. 9. Brain, CSF and corresponding plasma levels after a single oral dose of dose of 30 mg/kg of 3-SPA at 1, 2, 6, and 24 hr are shown in FIG. 10. Mean PK curves were used for calculation of pharmacokinetic parameters.

[3] = Oral and iv pharmacokinetics of 3-SPA in male SD rats; assay type: in vivo, Sprague-Dawley rats
Description: The oral and iv pharmacokinetics of 3-SPA was evaluated in male Sprague-Dawley fasted rats at a dose of 30 mg/kg and 10 mg/kg respectively (n=3 per groups). Animals were housed in a standard facility, with water and food was provided ad libitum to the experiment. 3-SPA was dissolved in saline, was administered orally by gavage and intravenously as a bolus. Serial blood samples (approximately 1.0 mL each) were collected from each animal at 0.25, 0.5, 1, 2, 4, 8 and 24 hours after dosing into tubes containing K2EDTA and processed for plasma by centrifugation. Plasma samples were stored at −80° C. until bioanalyses.
as §1, §2

AUC 0-inf_obs ([2]; Brain): 33224.4 ng·h/mL
AUC 0-t ([2]; Brain): 7586.5 ng·h/mL
Cmax ([2]; Brain): 649.8 ng/mL
t½ ([2]; Brain): 64.07 h
AUC 0-inf_obs ([2]; CSF): 726.2 ng·h/mL
AUC 0-t ([2]; CSF): 463.6 ng·h/mL
Cmax ([2]; CSF): 159.2 ng/mL
t½ ([2]; CSF): 3.56 h
AUC 0-inf_obs ([2]; Plasma): 30099.2 ng·h/mL
AUC 0-t ([2]; Plasma): 30001.7 ng·h/mL
Cmax ([2]; Plasma): 5714.6 ng/mL
t½ ([2]; Plasma): 3.03 h
CSF/brain AUC % [2]: 6.1%
Brain/Plasma (AUC %), brain penetration ([2]; 30 mg/kg): 25% and 25.3%
Tmax ([3]; Sprague-Dawley, rat, iv 10 mg/kg, plasma, read-out: Tmax): 0.08 h
Cl_obs ([3]; iv 10 mg/kg): 45 mL/min/kg
Vss_obs ([3]; iv 10 mg/kg): 12.9 L/kg
Vz_obs ([3]; iv 10 mg/kg): 43.6 L/kg
AUC 0-inf_obs ([3]; iv 10 mg/kg, plasma): 3638 ng·h/mL
AUC 0-t ([3]; iv 10 mg/kg, plasma): 3407 ng·h/mL
C0 ([3]; iv 10 mg/kg, plasma): 13599 ng/mL
Cmax ([3]; iv 10 mg/kg, plasma): 7484 ng/mL
t½ ([3]; iv 10 mg/kg, plasma): 10.99 h
Oral Bioavailability ([3]; oral 30 mg/kg vs iv 10 mg/kg): ~100%
AUC 0-inf_obs ([3]; oral 30 mg/kg, plasma): 19061 ng·h/mL
AUC 0-t ([3]; oral 30 mg/kg, plasma): 18894 ng·h/mL
Cmax ([3]; oral 30 mg/kg, plasma): 8943 ng/mL
Lambda_z ([3]; oral 30 mg/kg, plasma): 0.16 h⁻¹
Tmax ([3]; oral 30 mg/kg, plasma): 0.50 h
t½ ([3]; oral 30 mg/kg, plasma): 4.40 h
SMILES: O=C(O)CCS(=O)(=O)O [3-SPA, 3-sulfopropanoic acid]
Further metabolism or CYP interactions (in words) [1]: No further metabolism or CYP interactions have been observed
